Here are results for nine compounds from PubChem BioAssay AID1259407 (Chemical Carcinogenesis Research Information System (CCRIS), 2018).

Calls of active or inactive are those of the source. The rule behind the calls is not given here.

This data set relates to CCRIS mutagenicity, Ames/micronucleus/aberration tests. As to the kind of experiment: CCRIS mutagenicity studies.
The mark [1] stands for this setting: Test System: AMES SALMONELLA TYPHIMURIUM, Strain/Indicator: TA98, Metabolic Activation: RAT, LIVER, S-9, AROCLOR 1254, Method: STANDARD PLATE.
The mark [2] stands for this setting: Test System: AMES SALMONELLA TYPHIMURIUM, Strain/Indicator: TA98, Metabolic Activation: NONE, Method: STANDARD PLATE.
The mark [3] stands for this setting: Test System: AMES SALMONELLA TYPHIMURIUM, Strain/Indicator: TA100, Metabolic Activation: NONE, Method: STANDARD PLATE.

With `Cc1cnc2c(n1)c(C)cc1c2nc(N)n1C`, the mutagenic call under setting [1] is “active; positive”.
Consider `C[n+]1c2cc(N)ccc2cc2ccc(N)cc21`, for which the mutagenic call is, setting by setting: (Test System: AMES SALMONELLA TYPHIMURIUM, Strain/Indicator: TA1535, Metabolic Activation: NONE, Method: PREINCUBATION) “inactive; negative”; (Test System: AMES SALMONELLA TYPHIMURIUM, Strain/Indicator: TA1535, Metabolic Activation: RAT, LIVER, S-9, TETRACHLOROBIPHENYL, Method: PREINCUBATION) “inactive; negative”; (Test System: AMES SALMONELLA TYPHIMURIUM, Strain/Indicator: TA1537, Metabolic Activation: NONE, Method: PREINCUBATION) “active; positive”; (Test System: AMES SALMONELLA TYPHIMURIUM, Strain/Indicator: TA1537, Metabolic Activation: RAT, LIVER, S-9, TETRACHLOROBIPHENYL, Method: PREINCUBATION) “active; positive”; (Test System: AMES SALMONELLA TYPHIMURIUM, Strain/Indicator: TA1538, Metabolic Activation: NONE, Method: PREINCUBATION) “inactive; negative”; (Test System: AMES SALMONELLA TYPHIMURIUM, Strain/Indicator: TA1538, Metabolic Activation: RAT, LIVER, S-9, TETRACHLOROBIPHENYL, Method: PREINCUBATION) “active; positive”. The mutagenic call reads like this: (Test System: AMES SALMONELLA TYPHIMURIUM, Strain/Indicator: TA1977, Metabolic Activation: NONE, Method: PREINCUBATION) “active; positive”; (Test System: AMES SALMONELLA TYPHIMURIUM, Strain/Indicator: TA1977, Metabolic Activation: RAT, LIVER, S-9, TETRACHLOROBIPHENYL, Method: PREINCUBATION) “active; positive”; (Test System: AMES SALMONELLA TYPHIMURIUM, Strain/Indicator: TA1978, Metabolic Activation: NONE, Method: PREINCUBATION) “inactive; negative”; (Test System: AMES SALMONELLA TYPHIMURIUM, Strain/Indicator: TA1978, Metabolic Activation: RAT, LIVER, S-9, TETRACHLOROBIPHENYL, Method: PREINCUBATION) “inactive; negative”.
Turning to `[Cl-].[Cl-].[NH2-].[NH2-].[NH2-].[NH2-].[Pt+2]`, the mutagenic call (Test System: AMES SALMONELLA TYPHIMURIUM, Strain/Indicator: TA98, Metabolic Activation: NONE, Method: PREINCUBATION) was “inactive; negative”; the mutagenic call (Test System: AMES SALMONELLA TYPHIMURIUM, Strain/Indicator: TA98, Metabolic Activation: RAT, LIVER, S-9, AROCLOR 1254, Method: PREINCUBATION) is “inactive; negative”; the mutagenic call (Test System: AMES SALMONELLA TYPHIMURIUM, Strain/Indicator: TA100, Metabolic Activation: NONE, Method: PREINCUBATION) was “inactive; negative”; the mutagenic call (Test System: AMES SALMONELLA TYPHIMURIUM, Strain/Indicator: TA100, Metabolic Activation: RAT, LIVER, S-9, AROCLOR 1254, Method: PREINCUBATION) was “inactive; negative”.
Take `CCc1c2ccccc2c(CC)c2c1ccc1ccccc12`: the mutagenic call (Test System: AMES SALMONELLA TYPHIMURIUM, Strain/Indicator: TA98, Method: STANDARD PLATE) is “inactive; negative”; the mutagenic call (Test System: AMES SALMONELLA TYPHIMURIUM, Strain/Indicator: TA100, Metabolic Activation: RAT, LIVER, S-9, PHENOBARBITAL, Method: STANDARD PLATE) was “inactive; negative”; the mutagenic call (Test System: AMES SALMONELLA TYPHIMURIUM, Strain/Indicator: TA100, Method: STANDARD PLATE) was “inactive; negative”.
On to `CCCN(C)N=O`, for which the mutagenic call runs as follows: (Test System: CHINESE HAMSTER V-79, Strain/Indicator: V-79/8-AZAGUANINE, Metabolic Activation: RAT, LIVER, S-15, PHENOBARBITAL, Method: STANDARD PLATE) “active; positive”; (Test System: CHINESE HAMSTER V-79, Strain/Indicator: V-79/OUABAIN, Metabolic Activation: HAMSTER, HEPATOCYTES, Method: CELL-MEDIATED) “active; positive”.
As to `CC1=C[C@H](O)[C@H]2C[C@@H]1C2(C)C`, the mutagenic call runs as follows: under setting [2], “inactive; negative”; (Test System: AMES SALMONELLA TYPHIMURIUM, Strain/Indicator: TA98, Metabolic Activation: RAT, LIVER, S-9, Method: STANDARD PLATE) “inactive; negative”; under setting [3], “inactive; negative”; (Test System: AMES SALMONELLA TYPHIMURIUM, Strain/Indicator: TA100, Metabolic Activation: RAT, LIVER, S-9, Method: STANDARD PLATE) “inactive; negative”; (Test System: AMES SALMONELLA TYPHIMURIUM, Strain/Indicator: TA1535, Metabolic Activation: NONE, Method: STANDARD PLATE) “inactive; negative”; (Test System: AMES SALMONELLA TYPHIMURIUM, Strain/Indicator: TA1535, Metabolic Activation: RAT, LIVER, S-9, Method: STANDARD PLATE) “inactive; negative”. Also, the mutagenic call reads like this: (Test System: AMES SALMONELLA TYPHIMURIUM, Strain/Indicator: TA1538, Metabolic Activation: NONE, Method: STANDARD PLATE) “inactive; negative”; (Test System: AMES SALMONELLA TYPHIMURIUM, Strain/Indicator: TA1538, Metabolic Activation: RAT, LIVER, S-9, Method: STANDARD PLATE) “inactive; negative”.
Take `CC(=O)Nc1ccc(Sc2ccccc2)cc1`: the mutagenic call runs as follows: under setting [2], “inactive; negative”; under setting [1], “active; positive”.
In the case of `c1ccc2c(c1)oc1ccccc12`, the mutagenic call reads like this: (End Point: IN VITRO CHROMOSOMAL ABERRATIONS, Test System: CHINESE HAMSTER OVARY CELLS, Metabolic Activation: NONE) “inactive; negative”; (End Point: IN VITRO CHROMOSOMAL ABERRATIONS, Test System: CHINESE HAMSTER OVARY CELLS, Metabolic Activation: RAT, LIVER, S-9, AROCLOR 1254) “inactive; negative”; (Test System: AMES SALMONELLA TYPHIMURIUM, Strain/Indicator: TA98, Metabolic Activation: HAMSTER LIVER S-9, AROCLOR 1254, Method: STANDARD PLATE) “inactive; negative”; under setting [2], “inactive; negative”; (Test System: AMES SALMONELLA TYPHIMURIUM, Strain/Indicator: TA98, Metabolic Activation: RAT LIVER S-9, AROCLOR 1254, Method: STANDARD PLATE) “inactive; negative”; (Test System: AMES SALMONELLA TYPHIMURIUM, Strain/Indicator: TA98, Metabolic Activation: RAT, LIVER, S-9, PHENOBARBITAL AND NAPHTHOFLAVONE, Method: STANDARD PLATE) “inactive; negative”. The mutagenic call was “inactive; negative” (Test System: AMES SALMONELLA TYPHIMURIUM, Strain/Indicator: TA98, Metabolic Activation: S-9, PHENOBARBITAL AND 5,6-BENZOFLAVONE, Method: STANDARD PLATE); “inactive; negative” (Test System: AMES SALMONELLA TYPHIMURIUM, Strain/Indicator: TA100, Metabolic Activation: HAMSTER LIVER S-9, AROCLOR 1254, Method: STANDARD PLATE); “inactive; negative” under setting [3]; “inactive; negative” (Test System: AMES SALMONELLA TYPHIMURIUM, Strain/Indicator: TA100, Metabolic Activation: RAT LIVER S-9, AROCLOR 1254, Method: STANDARD PLATE); “inactive; negative” (Test System: AMES SALMONELLA TYPHIMURIUM, Strain/Indicator: TA100, Metabolic Activation: RAT, LIVER, S-9, PHENOBARBITAL AND NAPHTHOFLAVONE, Method: STANDARD PLATE); “inactive; negative” (Test System: AMES SALMONELLA TYPHIMURIUM, Strain/Indicator: TA100, Metabolic Activation: S-9, PHENOBARBITAL AND 5,6-BENZOFLAVONE, Method: STANDARD PLATE).
Regarding `CCN(N)CC`, the mutagenic call is “inactive; negative” (Test System: AMES SALMONELLA TYPHIMURIUM, Strain/Indicator: TA100, Metabolic Activation: NONE, Method: PREINCUBATION (11 HR GROWTH PERIOD FOR BACTERIA)); “inactive; negative” under setting [3]; “inactive; negative” (Test System: AMES SALMONELLA TYPHIMURIUM, Strain/Indicator: TA100, Metabolic Activation: RAT, LIVER, S-9, AROCLOR 1254, Method: STANDARD PLATE); “inactive; negative” (Test System: AMES SALMONELLA TYPHIMURIUM, Strain/Indicator: TA100, Metabolic Activation: RAT, LIVER, S-9, PCB, Method: PREINCUBATION (11 HR GROWTH PERIOD FOR BACTERIA)); “active; positive” (Test System: AMES SALMONELLA TYPHIMURIUM, Strain/Indicator: TA102, Metabolic Activation: NONE, Method: PREINCUBATION (5 HR GROWTH PERIOD FOR BACTERIA)); “inactive; negative” (Test System: AMES SALMONELLA TYPHIMURIUM, Strain/Indicator: TA102, Metabolic Activation: NONE, Method: PREINCUBATION (7 OR 11 HR GROWTH PERIOD FOR BACTERIA)). Moreover, the mutagenic call runs as follows: (Test System: AMES SALMONELLA TYPHIMURIUM, Strain/Indicator: TA102, Metabolic Activation: NONE, Method: STANDARD PLATE) “inactive; negative”; (Test System: AMES SALMONELLA TYPHIMURIUM, Strain/Indicator: TA102, Metabolic Activation: RAT, LIVER, S-9, AROCLOR 1254, Method: STANDARD PLATE) “inactive; negative”; (Test System: AMES SALMONELLA TYPHIMURIUM, Strain/Indicator: TA102, Metabolic Activation: RAT, LIVER, S-9, PCB, Method: PREINCUBATION (5 OR 7 HR GROWTH PERIOD FOR BACTERIA)) “inactive; negative”.
